# In patent publication US20110311455A1, “EN[…] GUIDED IMAGING AND […]” (THE REGENTS OF THE UNIVERSITY OF CALIFORNIA, priority 2008, published 2011):
# System: normal human bronchial epithelial cells (LHS-9)
# Assay: Cellular fluorescence imaging of cells incubated with OVG's or free ICG
# Format: cell-based
# Details: 2 hr post-incubation; ICG 10 μg/ml
# Procedure: The cells were cultured for 24 hours in serum free culture medium supplied by the commercial vendor. […] An optical filter that allowed transmission of NIR light greater than 780 nm was used to capture the fluorescent signal onto a CCD camera.
smiles,measurement,value
"CC1(C)C(/C=C/C=C/C=C/C=C2\N(CCCCS(=O)(=O)O)c3ccc4ccccc4c3C2(C)C)=[N+](CCCCS(=O)(=O)[O-])c2ccc3ccccc3c21 [ICG, indocyanine green]",localization in cells (confocal fluorescent images),remains mostly localized to the “rim” of the cells
